Assay results as given in US8846698B2, “Pyrrolo[2,3-d]pyrimidine tropomysin-related kinase inhibitors” (Pfizer Limited, priority 2011, dated 2014).

Target: TRKA (Homo sapiens (Human), UniProt P04629)
Experiment: Isolated TRK enzyme assay (HTRF KinEASE-TK), TRKA
Format: biochemical
Settings: read-out: Trka enzyme (IC50)

Chain of TRKA (P04629 441-796): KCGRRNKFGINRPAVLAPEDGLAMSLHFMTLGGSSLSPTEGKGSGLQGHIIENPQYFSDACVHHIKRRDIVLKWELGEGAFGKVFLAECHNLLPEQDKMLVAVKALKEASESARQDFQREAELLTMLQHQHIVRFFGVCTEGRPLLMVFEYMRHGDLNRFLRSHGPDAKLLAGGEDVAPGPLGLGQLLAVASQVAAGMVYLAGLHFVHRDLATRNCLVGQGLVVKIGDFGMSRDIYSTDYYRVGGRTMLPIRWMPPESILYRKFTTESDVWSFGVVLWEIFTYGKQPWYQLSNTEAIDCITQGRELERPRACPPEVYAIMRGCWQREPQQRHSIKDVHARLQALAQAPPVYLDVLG

Row | SMILES | IC50
1 | CC(C)n1cc(C(=O)c2cncc(NC(=O)Cn3cnc(Cl)c3Cl)c2)c2cncnc21 [Example 355, 2-(4,5-Dichloro-imidazol-1-yl)-N-[5-(7-isopropyl-7H-pyrrolo[2,3-d]pyrimidine-5-carbonyl)-pyridin-3-yl]-acetamide] | 302 nM
2 | COc1ccc(CC(=O)Nc2cncc(C(=O)c3cn(C)c4ncncc34)c2)cc1 [Example 181, 2-(4-methoxyphenyl)-N-{5-[(7-methyl-7H-pyrrolo[2,3-d]pyrimidin-5-yl)carbonyl]pyridin-3-yl}acetamide] | 3100 nM
3 | CC(C)(C)n1cc(C(=O)c2cncc(NC(=O)Cc3ccc(Br)cn3)c2)c2cnc(N)nc21 [Example 529, N-[5-(2-Amino-7-tert-butyl-7H-pyrrolo[2,3-d]pyrimidine-5-carbonyl)-pyridin-3-yl]-2-(5-bromo-pyridin-2-yl)-acetamide] | 3.93 nM
4 | CC(C)n1cc(C(=O)c2cncc(NC(=O)c3ccnc4[nH]ccc34)c2)c2cncnc21 [Example 407, 1H-Pyrrolo[2,3-b]pyridine-4-carboxylic acid [5-(7-isopropyl-7H-pyrrolo[2,3-d]pyrimidine-5-carbonyl)-pyridin-3-yl]-amide] | 2600 nM
5 | CC(C)n1cc(C(=O)c2cncc(NC(=O)Cc3ccccn3)c2)c2cncnc21 [Example 151, N-{5-[(7-isopropyl-7H-pyrrolo[2,3-d]pyrimidin-5-yl)carbonyl]pyridin-3-yl}-2-pyridin-2-ylacetamide] | 232 nM
6 | Cc1ccncc1C(=O)Nc1cncc(C(=O)c2cn(C(C)C)c3ncncc23)c1 [Example 499, N-[5-(7-Isopropyl-7H-pyrrolo[2,3-d]pyrimidine-5-carbonyl)-pyridin-3-yl]-4-methyl-nicotinamide] | 9800 nM
7 | Cc1cnc(C(=O)Nc2cncc(C(=O)c3cn(C(C)C)c4ncncc34)c2)cn1 [Example 393, 5-Methyl-pyrazine-2-carboxylic acid[5-(7-isopropyl-7H-pyrrolo[2,3-d]pyrimidine-5-carbonyl)-pyridin-3-yl]-amide] | 1360 nM
8 | Cn1cc(C(=O)c2cncc(NC(=O)Cc3cccc(C(F)(F)F)c3)c2)c2cncnc21 [Example 194, N-{5-[(7-methyl-7H-pyrrolo[2,3-d]pyrimidin-5-yl)carbonyl]pyridin-3-yl}-2-[3-(trifluoromethyl)phenyl]acetamide] | 101 nM
9 | CC(C)n1cc(C(=O)c2cncc(NC(=O)Cn3ncc4cc(F)ccc43)c2)c2cncnc21 [Example 95, 2-(5-fluoro-1H-indazol-1-yl)-N-{5-[(7-isopropyl-7H-pyrrolo[2,3-d]pyrimidin-5-yl)carbonyl]pyridin-3-yl}acetamide] | 3.95 nM
10 | Cc1ccn2cc(CC(=O)Nc3cncc(C(=O)c4cn(C(C)C)c5ncncc45)c3)nc2n1 [Example 121, N-{5-[(7-isopropyl-7H-pyrrolo[2,3-d]pyrimidin-5-yl)carbonyl]pyridin-3-yl}-2-(7-methylimidazo[1,2-a]pyrimidin-2-yl)acetamide] | 5200 nM
11 | C[C@H](CO)n1cc(C(=O)c2cncc(NC(=O)Cc3ccc4cccnc4c3)c2)c2cncnc21 [Example 210, N-[5-({7-[(1R)-2-hydroxy-1-methylethyl]-7H-pyrrolo[2,3-d]pyrimidin-5-yl}carbonyl)pyridin-3-yl]-2-quinolin-7-ylacetamide] | 185 nM
12 | CC(C)n1cc(C(=O)c2cncc(NC(=O)[C@@H](Cc3ccc(C(=O)c4ccccc4)cc3)NC(=O)OC(C)(C)C)c2)c2cncnc21 [Example 284, 4-benzoyl-N-alpha-(tert-butoxycarbonyl)-N-{5-[(7-isopropyl-7H-pyrrolo[2,3-d]pyrimidin-5-yl)carbonyl]pyridin-3-yl}-L-phenylalaninamide] | 2020 nM
13 | CC(C)n1cc(C(=O)c2cncc(NC(=O)Cc3ccc(F)cn3)c2)c2cnc(N)nc21 [Example 243, N-{5-[(2-amino-7-isopropyl-7H-pyrrolo[2,3-d]pyrimidin-5-yl)carbonyl]pyridin-3-yl}-2-(5-fluoropyridin-2-yl)acetamide] | 38.4 nM
14 | CC(C)n1cc(C(=O)c2cncc(NC(=O)Cc3ccc4onc(N)c4c3)c2)c2cncnc21 [Example 83, 2-(3-amino-1,2-benzisoxazol-5-yl)-N-{5-[(7-isopropyl-7H-pyrrolo[2,3-d]pyrimidin-5-yl)carbonyl]pyridin-3-yl}acetamide] | 355 nM
15 | CNC(=O)Cn1cc(C(=O)c2cncc(NC(=O)Cc3ccc(Cl)cc3)c2)c2cncnc21 [Example 305, 2-(4-chlorophenyl)-N-[5-({7-[2-(methylamino)-2-oxoethyl]-7H-pyrrolo[2,3-d]pyrimidin-5-yl}carbonyl)pyridin-3-yl]acetamide] | 2640 nM
16 | CC(C)n1cc(C(=O)c2cncc(NC(=O)C(O)c3ccccc3)c2)c2cncnc21 (stereo not shown) [Example 518, 2-Hydroxy-N-[5-(7-isopropyl-7H-pyrrolo[2,3-d]pyrimidine-5-carbonyl)-pyridin-3-yl]-2-phenyl-acetamide] | 7.3 nM
17 | CC(C)n1cc(C(=O)c2cncc(NC(=O)Cn3ncc4ccccc43)c2)c2cncnc21 [Example 103, 2-(1H-indazol-1-yl)-N-{5-[(7-isopropyl-7H-pyrrolo[2,3-d]pyrimidin-5-yl)carbonyl]pyridin-3-yl}acetamide] | 41.7 nM

Row | SMILES | IC50
18 | CC(C)n1cc(C(=O)c2cncc(NC(=O)Cc3cccnc3)c2)c2cncnc21 [Example 118, N-{5-[(7-isopropyl-7H-pyrrolo[2,3-d]pyrimidin-5-yl)carbonyl]pyridin-3-yl}-2-pyridin-3-ylacetamide] | 2550 nM
19 | CC(C)n1cc(C(=O)c2cncc(NC(=O)Cc3cn4ccsc4n3)c2)c2cncnc21 [Example 360, 2-Imidazo[2,1-b]thiazol-6-yl-N-[5-(7-isopropyl-7H-pyrrolo[2,3-d]pyrimidine-5-carbonyl)-pyridin-3-yl]-acetamide] | 956 nM
20 | CC(C)n1cc(C(=O)c2cncc(NC(=O)Cc3cccc(S(C)(=O)=O)c3)c2)c2cnc(N)nc21 [Example 247, N-{5-[(2-amino-7-isopropyl-7H-pyrrolo[2,3-d]pyrimidin-5-yl)carbonyl]pyridin-3-yl}-2-[3-(methylsulfonyl)phenyl]acetamide] | 71 nM
21 | CC(C)n1cc(C(=O)c2cncc(NC(=O)Cn3ccc4ccccc43)c2)c2cncnc21 [Example 111, 2-(1H-indol-1-yl)-N-{5-[(7-isopropyl-7H-pyrrolo[2,3-d]pyrimidin-5-yl)carbonyl]pyridin-3-yl}acetamide] | 46.2 nM
22 | CC(C)n1cc(C(=O)c2cncc(NC(=O)c3ccncc3F)c2)c2cncnc21 [Example 460, 3-Fluoro-N-[5-(7-isopropyl-7H-pyrrolo[2,3-d]pyrimidine-5-carbonyl)-pyridin-3-yl]-isonicotinamide] | 9800 nM
23 | Cn1cc(C(=O)c2cncc(NC(=O)CCc3cccc(Cl)c3)c2)c2cncnc21 [Example 323, 3-(3-chlorophenyl)-N-{5-[(7-methyl-7H-pyrrolo[2,3-d]pyrimidin-5-yl)carbonyl]pyridin-3-yl}propanamide] | 3100 nM
24 | CC(C)n1cnc(C(=O)Nc2cncc(C(=O)c3cn(C(C)C)c4ncncc34)c2)c1 [Example 434, 1-Isopropyl-1H-imidazole-4-carboxylic acid [5-(7-isopropyl-7H-pyrrolo[2,3-d]pyrimidine-5-carbonyl)-pyridin-3-yl]-amide] | 99.9 nM
25 | Cn1cc(C(=O)c2cncc(NC(=O)Cc3ccc(F)cc3F)c2)c2cncnc21 [Example 191, 2-(2,4-difluorophenyl)-N-{5-[(7-methyl-7H-pyrrolo[2,3-d]pyrimidin-5-yl)carbonyl]pyridin-3-yl}acetamide] | 873 nM
26 | Cc1nc(C(=O)Nc2cncc(C(=O)c3cn(C(C)C)c4ncncc34)c2)c(C(F)(F)F)o1 [Example 504, 2-Methyl-5-trifluoromethyl-oxazole-4-carboxylic acid [5-(7-isopropyl-7H-pyrrolo[2,3-d]pyrimidine-5-carbonyl)-pyridin-3-yl]-amide] | 1020 nM
27 | Cc1cc(C)n(CC(=O)Nc2cncc(C(=O)c3cn(C(C)C)c4ncncc34)c2)n1 [Example 115, 2-(3,5-dimethyl-1H-pyrazol-1-yl)-N-{5-[(7-isopropyl-7H-pyrrolo[2,3-d]pyrimidin-5-yl)carbonyl]pyridin-3-yl}acetamide] | 102 nM
28 | Cc1nc(C)n(CC(=O)Nc2cncc(C(=O)c3cn(C(C)C)c4ncncc34)c2)n1 [Example 358, 2-(3,5-Dimethyl-1,2,4-triazol-1-yl)-N-[5-(7-isopropyl-7H-pyrrolo[2,3-d]pyrimidine-5-carbonyl)-pyridin-3-yl]-acetamide] | 9800 nM
29 | CC(C)n1cc(C(=O)c2cncc(NC(=O)c3cncc(Cl)c3)c2)c2cncnc21 [Example 430, 5-Chloro-N-[5-(7-isopropyl-7H-pyrrolo[2,3-d]pyrimidine-5-carbonyl)-pyridin-3-yl]-nicotinamide] | 297 nM
30 | CC(C)n1cc(C(=O)c2cncc(NC(=O)CN3CCc4cccnc4C3)c2)c2cncnc21 [Example 517, 2-(5,8-Dihydro-6H-[1,7]naphthyridin-7-yl)-N-[5-(7-isopropyl-7H-pyrrolo[2,3-d]pyrimidine-5-carbonyl)-pyridin-3-yl]-acetamide] | 4390 nM
31 | CC(C)n1cc(C(=O)c2cncc(NC(=O)Cc3ccc4cccnc4c3)c2)c2cncnc21 [Example 100, N-{5-[(7-isopropyl-7H-pyrrolo[2,3-d]pyrimidin-5-yl)carbonyl]pyridin-3-yl}-2-quinolin-7-ylacetamide] | 25.6 nM
32 | CC(C)n1cc(C(=O)c2cncc(NC(=O)c3[nH]nc4ccccc34)c2)c2cncnc21 [Example 507, 2H-Indazole-3-carboxylic acid [5-(7-isopropyl-7H-pyrrolo[2,3-d]pyrimidine-5-carbonyl)-pyridin-3-yl]-amide] | 5.45 nM
33 | Cc1ccn(CC(=O)Nc2cncc(C(=O)c3cn(C(C)C)c4ncncc34)c2)n1 [Example 113, N-{5-[(7-isopropyl-7H-pyrrolo[2,3-d]pyrimidin-5-yl)carbonyl]pyridin-3-yl}-2-(3-methyl-1H-pyrazol-1-yl)acetamide] | 300 nM
34 | O=C(Nc1cncc(C(=O)c2cn(C(CO)CO)c3ncncc23)c1)c1cccc(C(F)(F)F)c1 [Example 269, N-(5-(7-(1,3-dihydroxypropan-2-yl)-7H-pyrrolo[2,3-d]pyrimidine-5-carbonyl)pyridin-3-yl)-3-(trifluoromethyl)benzamide] | 557 nM
